In the kinase profiling compilation of Christmann-Franck et al. (2016):

Target: BRSK2 (human) (UniProt Q8IWQ3)
Experiment: radiometric filter-binding kinase assay, Kinase HotSpot
Conditions: compound 0.5 µM; ATP 10 µM

In order of rising residual activity:
1. Cc1cc(Nc2nc(-c3ccccc3)nc3ccccc23)n[nH]1  61.4%
2. COc1cc2ncnc(Nc3ccc(O)c(Br)c3)c2cc1OC  80.1%
3. O=C(O)c1ccc2c3c1cccc3c(=O)n1c3ccccc3nc21  90.4%
4. N#Cc1c(NC(=O)c2cccc3ccccc23)sc2c1CCCC2  100%

Target: BTK (human) (UniProt Q06187)
Experiment: as above
Conditions: compound 0.5 µM; ATP 10 µM

Sequence of BTK (human) (Q06187 whole entry, looked up): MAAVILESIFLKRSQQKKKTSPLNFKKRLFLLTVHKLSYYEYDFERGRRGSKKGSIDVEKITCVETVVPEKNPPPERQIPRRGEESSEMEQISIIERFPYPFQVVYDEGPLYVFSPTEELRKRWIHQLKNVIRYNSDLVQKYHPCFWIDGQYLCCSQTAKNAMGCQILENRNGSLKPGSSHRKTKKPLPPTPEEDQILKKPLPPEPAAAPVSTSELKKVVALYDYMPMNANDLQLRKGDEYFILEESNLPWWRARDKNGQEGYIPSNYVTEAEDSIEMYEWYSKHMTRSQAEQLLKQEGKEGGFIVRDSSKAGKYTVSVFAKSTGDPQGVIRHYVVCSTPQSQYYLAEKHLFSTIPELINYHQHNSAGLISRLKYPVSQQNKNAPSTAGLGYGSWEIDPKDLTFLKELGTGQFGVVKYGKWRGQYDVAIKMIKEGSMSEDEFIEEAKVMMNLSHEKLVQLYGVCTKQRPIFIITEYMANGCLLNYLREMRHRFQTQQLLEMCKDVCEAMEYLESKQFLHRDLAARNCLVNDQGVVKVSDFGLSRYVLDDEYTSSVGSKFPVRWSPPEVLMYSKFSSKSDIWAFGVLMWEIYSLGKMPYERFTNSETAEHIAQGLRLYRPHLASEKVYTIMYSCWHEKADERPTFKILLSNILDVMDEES

In order of rising residual activity:
1. Cc1cc(Nc2nc(-c3ccccc3)nc3ccccc23)n[nH]1  43.4%
2. COc1cc2ncnc(Nc3ccc(O)c(Br)c3)c2cc1OC  85.5%
3. N#Cc1c(NC(=O)c2cccc3ccccc23)sc2c1CCCC2  95%
4. O=C(O)c1ccc2c3c1cccc3c(=O)n1c3ccccc3nc21  109%

Target: CAMK1G (human) (UniProt Q96NX5)
Sequence (Q96NX5 whole entry, looked up): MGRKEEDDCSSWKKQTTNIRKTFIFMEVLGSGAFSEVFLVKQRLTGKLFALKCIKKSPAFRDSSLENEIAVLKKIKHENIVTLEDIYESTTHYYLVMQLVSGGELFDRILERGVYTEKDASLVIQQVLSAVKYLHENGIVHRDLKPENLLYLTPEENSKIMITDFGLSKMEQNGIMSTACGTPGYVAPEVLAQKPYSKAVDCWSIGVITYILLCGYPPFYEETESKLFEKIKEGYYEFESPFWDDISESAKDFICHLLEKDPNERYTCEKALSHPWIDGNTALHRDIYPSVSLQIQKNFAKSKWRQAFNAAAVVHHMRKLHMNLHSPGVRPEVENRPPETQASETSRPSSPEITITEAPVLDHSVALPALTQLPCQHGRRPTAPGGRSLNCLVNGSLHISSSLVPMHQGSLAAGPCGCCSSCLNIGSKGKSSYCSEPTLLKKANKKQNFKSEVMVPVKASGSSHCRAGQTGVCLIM
Experiment: as above
Conditions: compound 0.5 µM; ATP 10 µM

In order of falling residual activity:
1. COc1cc2ncnc(Nc3ccc(O)c(Br)c3)c2cc1OC  103%
2. Cc1cc(Nc2nc(-c3ccccc3)nc3ccccc23)n[nH]1  101%
3. O=C(O)c1ccc2c3c1cccc3c(=O)n1c3ccccc3nc21  99%
4. N#Cc1c(NC(=O)c2cccc3ccccc23)sc2c1CCCC2  97.7%

Target: CAMK2A (human) (UniProt Q9UQM7)
Experiment: as above
Conditions: compound 0.5 µM; ATP 10 µM

In order of rising residual activity:
1. O=C(O)c1ccc2c3c1cccc3c(=O)n1c3ccccc3nc21  85.2%
2. COc1cc2ncnc(Nc3ccc(O)c(Br)c3)c2cc1OC  98%
3. N#Cc1c(NC(=O)c2cccc3ccccc23)sc2c1CCCC2  104%
4. Cc1cc(Nc2nc(-c3ccccc3)nc3ccccc23)n[nH]1  108%

Target: CAMK2B (human) (UniProt Q13554)
Experiment: as above
Conditions: compound 0.5 µM; ATP 10 µM

In order of falling residual activity:
1. N#Cc1c(NC(=O)c2cccc3ccccc23)sc2c1CCCC2  101%
2. COc1cc2ncnc(Nc3ccc(O)c(Br)c3)c2cc1OC  99.3%
3. Cc1cc(Nc2nc(-c3ccccc3)nc3ccccc23)n[nH]1  97.7%
4. O=C(O)c1ccc2c3c1cccc3c(=O)n1c3ccccc3nc21  92.6%

Target: CAMK2D (human) (UniProt Q13557)
Experiment: as above
Conditions: compound 0.5 µM; ATP 10 µM

In order of rising residual activity:
1. O=C(O)c1ccc2c3c1cccc3c(=O)n1c3ccccc3nc21  93.6%
2. COc1cc2ncnc(Nc3ccc(O)c(Br)c3)c2cc1OC  95.7%
3. Cc1cc(Nc2nc(-c3ccccc3)nc3ccccc23)n[nH]1  97.3%
4. N#Cc1c(NC(=O)c2cccc3ccccc23)sc2c1CCCC2  97.7%

Target: CAMK2G (human) (UniProt Q13555)
Sequence (Q13555 whole entry, looked up): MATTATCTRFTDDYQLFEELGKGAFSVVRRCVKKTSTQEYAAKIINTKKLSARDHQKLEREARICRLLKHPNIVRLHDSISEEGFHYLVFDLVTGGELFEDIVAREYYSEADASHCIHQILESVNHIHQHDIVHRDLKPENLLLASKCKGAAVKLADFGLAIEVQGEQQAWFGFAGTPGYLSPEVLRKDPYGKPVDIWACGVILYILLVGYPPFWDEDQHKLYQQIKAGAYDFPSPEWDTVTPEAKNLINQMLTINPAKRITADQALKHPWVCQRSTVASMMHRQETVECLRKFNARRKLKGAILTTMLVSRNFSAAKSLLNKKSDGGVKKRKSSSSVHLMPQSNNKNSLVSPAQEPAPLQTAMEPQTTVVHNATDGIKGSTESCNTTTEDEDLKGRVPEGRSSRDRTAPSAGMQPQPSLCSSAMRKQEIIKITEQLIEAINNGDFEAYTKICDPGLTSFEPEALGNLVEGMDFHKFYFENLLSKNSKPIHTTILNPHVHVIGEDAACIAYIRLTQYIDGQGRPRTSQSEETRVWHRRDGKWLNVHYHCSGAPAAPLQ
Experiment: as above
Conditions: compound 0.5 µM; ATP 10 µM

In order of rising residual activity:
1. COc1cc2ncnc(Nc3ccc(O)c(Br)c3)c2cc1OC  95.2%
2. Cc1cc(Nc2nc(-c3ccccc3)nc3ccccc23)n[nH]1  95.9%
3. O=C(O)c1ccc2c3c1cccc3c(=O)n1c3ccccc3nc21  96.5%
4. N#Cc1c(NC(=O)c2cccc3ccccc23)sc2c1CCCC2  99.6%

Target: CDK3 CCNE1 (human) (UniProt Q00526+P24864)
Experiment: as above
Conditions: compound 0.5 µM; ATP 10 µM

In order of rising residual activity:
1. Cc1cc(Nc2nc(-c3ccccc3)nc3ccccc23)n[nH]1  85%
2. COc1cc2ncnc(Nc3ccc(O)c(Br)c3)c2cc1OC  93.5%
3. O=C(O)c1ccc2c3c1cccc3c(=O)n1c3ccccc3nc21  97.9%
4. N#Cc1c(NC(=O)c2cccc3ccccc23)sc2c1CCCC2  99.2%

Target: CDK4 CCND1 (human) (UniProt P24385+P11802)
Experiment: as above
Conditions: compound 0.5 µM; ATP 10 µM

In order of falling residual activity:
1. O=C(O)c1ccc2c3c1cccc3c(=O)n1c3ccccc3nc21  106%
2. COc1cc2ncnc(Nc3ccc(O)c(Br)c3)c2cc1OC  101%
3. Cc1cc(Nc2nc(-c3ccccc3)nc3ccccc23)n[nH]1  100%
4. N#Cc1c(NC(=O)c2cccc3ccccc23)sc2c1CCCC2  98.7%

Target: CDK5 CDK5R1 p25 (human) (UniProt Q00535+Q15078)
Experiment: as above
Conditions: compound 0.5 µM; ATP 10 µM

In order of falling residual activity:
1. N#Cc1c(NC(=O)c2cccc3ccccc23)sc2c1CCCC2  100%
2. Cc1cc(Nc2nc(-c3ccccc3)nc3ccccc23)n[nH]1  98.7%
3. COc1cc2ncnc(Nc3ccc(O)c(Br)c3)c2cc1OC  98.4%
4. O=C(O)c1ccc2c3c1cccc3c(=O)n1c3ccccc3nc21  80.6%

Target: CDK6 CCND3 (human) (UniProt P30281+Q00534)
Experiment: as above
Conditions: compound 0.5 µM; ATP 10 µM

In order of falling residual activity:
1. O=C(O)c1ccc2c3c1cccc3c(=O)n1c3ccccc3nc21  105%
2. COc1cc2ncnc(Nc3ccc(O)c(Br)c3)c2cc1OC  102%
3. N#Cc1c(NC(=O)c2cccc3ccccc23)sc2c1CCCC2  99%
4. Cc1cc(Nc2nc(-c3ccccc3)nc3ccccc23)n[nH]1  58.4%

Target: CLK1 (human) (UniProt P49759)
Experiment: as above
Conditions: compound 0.5 µM; ATP 10 µM

In order of rising residual activity:
1. Cc1cc(Nc2nc(-c3ccccc3)nc3ccccc23)n[nH]1  74%
2. COc1cc2ncnc(Nc3ccc(O)c(Br)c3)c2cc1OC  77.2%
3. O=C(O)c1ccc2c3c1cccc3c(=O)n1c3ccccc3nc21  93.8%
4. N#Cc1c(NC(=O)c2cccc3ccccc23)sc2c1CCCC2  99.2%

Target: DCLK2 (human) (UniProt Q8N568)
Experiment: as above
Conditions: compound 0.5 µM; ATP 10 µM

In order of rising residual activity:
1. Cc1cc(Nc2nc(-c3ccccc3)nc3ccccc23)n[nH]1  87.4%
2. N#Cc1c(NC(=O)c2cccc3ccccc23)sc2c1CCCC2  96.5%
3. O=C(O)c1ccc2c3c1cccc3c(=O)n1c3ccccc3nc21  96.7%
4. COc1cc2ncnc(Nc3ccc(O)c(Br)c3)c2cc1OC  101%

Target: EPHB4 (human) (UniProt P54760)
Sequence (P54760 whole entry, looked up): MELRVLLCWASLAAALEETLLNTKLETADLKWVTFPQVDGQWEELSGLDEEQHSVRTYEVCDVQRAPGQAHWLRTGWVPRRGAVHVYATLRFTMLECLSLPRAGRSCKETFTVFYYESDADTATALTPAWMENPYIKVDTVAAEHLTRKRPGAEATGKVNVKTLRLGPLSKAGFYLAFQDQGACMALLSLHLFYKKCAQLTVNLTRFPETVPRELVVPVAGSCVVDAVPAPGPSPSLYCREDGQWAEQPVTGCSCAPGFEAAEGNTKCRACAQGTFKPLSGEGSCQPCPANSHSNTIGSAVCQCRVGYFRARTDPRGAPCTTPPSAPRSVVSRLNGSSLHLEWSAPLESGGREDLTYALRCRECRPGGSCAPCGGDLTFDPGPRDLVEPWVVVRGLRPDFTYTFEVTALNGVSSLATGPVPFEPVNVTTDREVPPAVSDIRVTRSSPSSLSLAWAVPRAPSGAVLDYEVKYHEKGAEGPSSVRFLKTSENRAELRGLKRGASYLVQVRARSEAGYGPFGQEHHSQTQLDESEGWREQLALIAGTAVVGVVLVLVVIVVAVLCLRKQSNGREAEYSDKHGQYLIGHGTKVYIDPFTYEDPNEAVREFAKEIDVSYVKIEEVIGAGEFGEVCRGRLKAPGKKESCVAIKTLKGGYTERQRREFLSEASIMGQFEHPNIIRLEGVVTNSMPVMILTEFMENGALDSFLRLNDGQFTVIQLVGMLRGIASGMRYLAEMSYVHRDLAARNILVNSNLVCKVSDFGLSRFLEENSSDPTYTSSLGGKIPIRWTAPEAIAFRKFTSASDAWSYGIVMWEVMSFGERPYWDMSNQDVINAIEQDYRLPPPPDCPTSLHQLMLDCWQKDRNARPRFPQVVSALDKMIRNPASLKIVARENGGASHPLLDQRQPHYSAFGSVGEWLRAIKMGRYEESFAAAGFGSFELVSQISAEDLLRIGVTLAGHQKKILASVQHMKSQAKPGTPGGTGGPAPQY
Experiment: as above
Conditions: compound 0.5 µM; ATP 10 µM

In order of falling residual activity:
1. N#Cc1c(NC(=O)c2cccc3ccccc23)sc2c1CCCC2  99.5%
2. Cc1cc(Nc2nc(-c3ccccc3)nc3ccccc23)n[nH]1  91.1%
3. O=C(O)c1ccc2c3c1cccc3c(=O)n1c3ccccc3nc21  90.6%
4. COc1cc2ncnc(Nc3ccc(O)c(Br)c3)c2cc1OC  52.2%

Target: FLT1 (human) (UniProt P17948)
Sequence (P17948 whole entry, looked up): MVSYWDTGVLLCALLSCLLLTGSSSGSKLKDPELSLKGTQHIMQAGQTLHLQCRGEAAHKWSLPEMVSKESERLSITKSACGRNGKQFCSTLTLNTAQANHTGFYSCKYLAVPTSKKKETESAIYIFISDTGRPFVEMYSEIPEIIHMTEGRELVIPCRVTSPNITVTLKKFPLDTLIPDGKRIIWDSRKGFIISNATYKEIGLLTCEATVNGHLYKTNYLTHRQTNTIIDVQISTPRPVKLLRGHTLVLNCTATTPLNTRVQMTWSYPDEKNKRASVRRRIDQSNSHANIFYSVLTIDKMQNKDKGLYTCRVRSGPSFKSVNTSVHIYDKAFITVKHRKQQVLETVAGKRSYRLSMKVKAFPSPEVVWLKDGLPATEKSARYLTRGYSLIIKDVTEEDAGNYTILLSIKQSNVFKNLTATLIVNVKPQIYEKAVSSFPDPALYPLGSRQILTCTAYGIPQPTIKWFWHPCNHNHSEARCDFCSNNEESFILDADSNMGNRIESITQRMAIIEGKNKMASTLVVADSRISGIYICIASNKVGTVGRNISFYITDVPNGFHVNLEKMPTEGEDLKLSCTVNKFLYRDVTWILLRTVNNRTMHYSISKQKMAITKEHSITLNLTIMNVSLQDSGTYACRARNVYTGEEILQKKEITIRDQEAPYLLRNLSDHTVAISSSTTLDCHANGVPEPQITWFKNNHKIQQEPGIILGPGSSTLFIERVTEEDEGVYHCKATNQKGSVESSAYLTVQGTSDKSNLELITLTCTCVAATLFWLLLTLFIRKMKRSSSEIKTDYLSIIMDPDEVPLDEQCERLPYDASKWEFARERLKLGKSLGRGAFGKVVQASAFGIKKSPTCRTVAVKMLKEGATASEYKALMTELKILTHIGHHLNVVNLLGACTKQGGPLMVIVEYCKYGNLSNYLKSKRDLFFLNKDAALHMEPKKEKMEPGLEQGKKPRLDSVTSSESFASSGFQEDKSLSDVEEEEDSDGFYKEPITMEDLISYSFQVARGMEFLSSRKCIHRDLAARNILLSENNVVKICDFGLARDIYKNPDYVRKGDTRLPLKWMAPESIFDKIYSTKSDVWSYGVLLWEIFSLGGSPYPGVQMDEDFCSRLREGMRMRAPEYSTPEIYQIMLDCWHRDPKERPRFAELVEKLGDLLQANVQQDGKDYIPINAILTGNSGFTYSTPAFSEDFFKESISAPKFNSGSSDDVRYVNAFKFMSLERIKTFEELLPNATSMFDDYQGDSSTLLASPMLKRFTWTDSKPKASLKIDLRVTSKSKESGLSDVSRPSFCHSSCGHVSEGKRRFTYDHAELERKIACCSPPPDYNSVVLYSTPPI
Experiment: as above
Conditions: compound 0.5 µM; ATP 10 µM

In order of rising residual activity:
1. Cc1cc(Nc2nc(-c3ccccc3)nc3ccccc23)n[nH]1  78.7%
2. COc1cc2ncnc(Nc3ccc(O)c(Br)c3)c2cc1OC  83.4%
3. N#Cc1c(NC(=O)c2cccc3ccccc23)sc2c1CCCC2  84.4%
4. O=C(O)c1ccc2c3c1cccc3c(=O)n1c3ccccc3nc21  86.5%

Target: GSG2 (human) (UniProt Q8TF76)
Experiment: as above
Conditions: compound 0.5 µM; ATP 10 µM

In order of rising residual activity:
1. COc1cc2ncnc(Nc3ccc(O)c(Br)c3)c2cc1OC  84.8%
2. Cc1cc(Nc2nc(-c3ccccc3)nc3ccccc23)n[nH]1  90.5%
3. O=C(O)c1ccc2c3c1cccc3c(=O)n1c3ccccc3nc21  90.9%
4. N#Cc1c(NC(=O)c2cccc3ccccc23)sc2c1CCCC2  99%

Target: HCK (human) (UniProt P08631)
Experiment: as above
Conditions: compound 0.5 µM; ATP 10 µM

In order of rising residual activity:
1. COc1cc2ncnc(Nc3ccc(O)c(Br)c3)c2cc1OC  52.2%
2. Cc1cc(Nc2nc(-c3ccccc3)nc3ccccc23)n[nH]1  77.3%
3. N#Cc1c(NC(=O)c2cccc3ccccc23)sc2c1CCCC2  96.5%
4. O=C(O)c1ccc2c3c1cccc3c(=O)n1c3ccccc3nc21  96.7%

Target: JAK1 JH1 catalytic (human) (UniProt P23458)
Experiment: as above
Conditions: compound 0.5 µM; ATP 10 µM

In order of falling residual activity:
1. N#Cc1c(NC(=O)c2cccc3ccccc23)sc2c1CCCC2  108%
2. O=C(O)c1ccc2c3c1cccc3c(=O)n1c3ccccc3nc21  98.4%
3. Cc1cc(Nc2nc(-c3ccccc3)nc3ccccc23)n[nH]1  83.7%
4. COc1cc2ncnc(Nc3ccc(O)c(Br)c3)c2cc1OC  81.5%

Target: LTK (human) (UniProt P29376)
Experiment: as above
Conditions: compound 0.5 µM; ATP 10 µM

In order of falling residual activity:
1. N#Cc1c(NC(=O)c2cccc3ccccc23)sc2c1CCCC2  102%
2. O=C(O)c1ccc2c3c1cccc3c(=O)n1c3ccccc3nc21  72.7%
3. Cc1cc(Nc2nc(-c3ccccc3)nc3ccccc23)n[nH]1  63.6%
4. COc1cc2ncnc(Nc3ccc(O)c(Br)c3)c2cc1OC  5.44%

Target: MAP3K10 (human) (UniProt Q02779)
Sequence (Q02779 whole entry, looked up): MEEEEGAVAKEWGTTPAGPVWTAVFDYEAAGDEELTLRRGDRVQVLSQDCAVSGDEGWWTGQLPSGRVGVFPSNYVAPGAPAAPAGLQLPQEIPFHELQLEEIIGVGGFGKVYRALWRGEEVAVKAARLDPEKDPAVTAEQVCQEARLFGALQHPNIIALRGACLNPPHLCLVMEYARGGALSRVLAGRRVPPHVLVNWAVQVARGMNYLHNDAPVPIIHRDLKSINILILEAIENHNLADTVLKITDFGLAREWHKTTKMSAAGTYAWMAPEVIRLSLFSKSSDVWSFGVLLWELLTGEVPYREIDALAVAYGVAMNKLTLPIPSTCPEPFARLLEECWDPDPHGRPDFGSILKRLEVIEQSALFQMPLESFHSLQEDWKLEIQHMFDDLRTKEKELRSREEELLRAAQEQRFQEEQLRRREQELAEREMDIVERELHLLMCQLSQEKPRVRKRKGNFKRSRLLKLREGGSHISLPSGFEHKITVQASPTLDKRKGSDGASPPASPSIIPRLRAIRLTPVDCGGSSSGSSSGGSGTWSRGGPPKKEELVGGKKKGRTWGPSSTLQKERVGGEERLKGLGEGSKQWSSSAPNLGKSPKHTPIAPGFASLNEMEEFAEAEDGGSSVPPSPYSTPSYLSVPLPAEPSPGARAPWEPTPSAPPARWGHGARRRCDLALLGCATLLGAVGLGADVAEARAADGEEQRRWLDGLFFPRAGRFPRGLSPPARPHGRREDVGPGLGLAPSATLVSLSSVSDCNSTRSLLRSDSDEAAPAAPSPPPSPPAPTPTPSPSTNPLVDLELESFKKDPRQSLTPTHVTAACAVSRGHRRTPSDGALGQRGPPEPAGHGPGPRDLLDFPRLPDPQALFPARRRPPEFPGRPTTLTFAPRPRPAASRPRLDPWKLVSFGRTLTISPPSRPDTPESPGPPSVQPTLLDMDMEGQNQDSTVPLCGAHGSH
Experiment: as above
Conditions: compound 0.5 µM; ATP 10 µM

In order of rising residual activity:
1. Cc1cc(Nc2nc(-c3ccccc3)nc3ccccc23)n[nH]1  75.4%
2. N#Cc1c(NC(=O)c2cccc3ccccc23)sc2c1CCCC2  85.4%
3. COc1cc2ncnc(Nc3ccc(O)c(Br)c3)c2cc1OC  98.2%
4. O=C(O)c1ccc2c3c1cccc3c(=O)n1c3ccccc3nc21  99.3%

Target: MAP3K11 (human) (UniProt Q16584)
Experiment: as above
Conditions: compound 0.5 µM; ATP 10 µM

In order of rising residual activity:
1. Cc1cc(Nc2nc(-c3ccccc3)nc3ccccc23)n[nH]1  18.1%
2. O=C(O)c1ccc2c3c1cccc3c(=O)n1c3ccccc3nc21  23.7%
3. COc1cc2ncnc(Nc3ccc(O)c(Br)c3)c2cc1OC  83.7%
4. N#Cc1c(NC(=O)c2cccc3ccccc23)sc2c1CCCC2  103%
